This is an account of results in US12692264B2, “Pyrimidine or pyridine derivative, preparation method therefor, and application thereof in pharmacy” (ABBISKO THERAPEUTICS CO., LTD., priority 2021, dated 2026).

Each structure is given as a SMILES string.

For the assay, the target named is Ba/F3 EGFR-D770-N771ins_SVD (Homo sapiens, UniProt P00533, DUP768-770, cells depend on it). Description: Cell proliferation study (CellTiter-Glo, 72 hrs), Ba/F3 EGFR-D770-N771ins_SVD. It counts as cell-based. Particulars: CTG, * = average of multiple measurements, read-out: Ba/F3 EGFR-D770-N771ins_SVD IC50. As for the experimental part: (I) Reagents and Materials
Sequence of Ba/F3 EGFR-D770-N771ins_SVD (P00533 with tags, fused parts or gaps DUP768-770): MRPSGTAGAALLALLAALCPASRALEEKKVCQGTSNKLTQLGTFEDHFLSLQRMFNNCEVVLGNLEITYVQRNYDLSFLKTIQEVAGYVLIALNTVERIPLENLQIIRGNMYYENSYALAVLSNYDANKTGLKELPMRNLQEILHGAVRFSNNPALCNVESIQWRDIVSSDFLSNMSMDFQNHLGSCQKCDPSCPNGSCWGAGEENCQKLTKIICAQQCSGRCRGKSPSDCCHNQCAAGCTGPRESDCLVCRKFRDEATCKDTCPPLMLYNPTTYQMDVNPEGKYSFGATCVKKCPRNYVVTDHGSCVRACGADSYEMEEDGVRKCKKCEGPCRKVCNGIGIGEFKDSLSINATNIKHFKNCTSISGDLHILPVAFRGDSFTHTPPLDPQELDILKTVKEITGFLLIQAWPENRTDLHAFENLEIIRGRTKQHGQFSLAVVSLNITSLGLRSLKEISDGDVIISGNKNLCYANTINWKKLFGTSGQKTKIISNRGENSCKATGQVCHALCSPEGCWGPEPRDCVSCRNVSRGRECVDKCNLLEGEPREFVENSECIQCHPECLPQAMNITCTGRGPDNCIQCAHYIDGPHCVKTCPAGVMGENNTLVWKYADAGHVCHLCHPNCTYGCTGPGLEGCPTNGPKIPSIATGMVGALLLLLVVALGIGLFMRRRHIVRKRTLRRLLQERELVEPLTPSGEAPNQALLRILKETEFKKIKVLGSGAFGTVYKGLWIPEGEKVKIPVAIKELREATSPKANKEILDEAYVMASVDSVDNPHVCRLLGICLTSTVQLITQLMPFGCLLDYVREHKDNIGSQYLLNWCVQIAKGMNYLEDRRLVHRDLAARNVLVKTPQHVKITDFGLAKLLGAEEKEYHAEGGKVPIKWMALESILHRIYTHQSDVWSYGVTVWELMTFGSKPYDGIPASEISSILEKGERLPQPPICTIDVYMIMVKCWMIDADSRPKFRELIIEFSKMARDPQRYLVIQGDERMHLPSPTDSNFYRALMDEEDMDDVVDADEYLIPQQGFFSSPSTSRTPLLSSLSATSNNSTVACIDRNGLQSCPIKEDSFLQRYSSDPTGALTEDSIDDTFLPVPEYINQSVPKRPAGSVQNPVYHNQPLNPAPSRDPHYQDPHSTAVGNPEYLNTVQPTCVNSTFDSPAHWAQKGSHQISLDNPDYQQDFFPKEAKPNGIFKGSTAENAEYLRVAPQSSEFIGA
• Fetal bovine serum FBS (GBICO, Cat #10099-141); • CellTiter-Glo® luminescent cell viability assay kit (Promega, Cat #G7572); • Black transparent flat-bottom 96-well plate (Corning®, Cat #3603). (II) Instruments • SpectraMax multi-label microplate reader MD, 2104-0010A; • Carbon dioxide incubator, Thermo Scientific 3100 series; • Biological safety cabinet, Thermo Scientific, 1300 series model A2; • Inverted microscope, Olympus, CKX41SF; • Siemens refrigerator KK25E76T1. (III) Cell Lines and Culture Conditions
(IV) Experimental Procedures 1. Cell Culture and Inoculation: • (1) Cells in the logarithmic growth phase were harvested and counted using a […]. The cell viability was determined by the trypan blue dye exclusion method to ensure cell viability above 90%. • (2) The cell concentration was adjusted to reach a desired final density; 90 μL of cell suspension was added to a 96-well plate. • (3) The cells were incubated overnight in the 96-well plate at 37° C., 5% CO2 and with 95% humidity. 2. T0 Benchmark Data: • (1) 10 μL of PBS was added to each well of the TO plate containing the cells. • (2) The CTG reagent was thawed and the cell plate was equilibrated to room temperature for 30 min. • (3) An equal volume of CTG solution was added to each well. • (4) The cells were lysed by shaking on an orbital shaker for 5 min. • (5) The cell plate was left to stand at room temperature for 20 min to stabilize the fluorescence signal. • (6) The fluorescence signal values of TO were read. 3. Dilution and Addition of Compounds • (1) According to the compound information table, a corresponding volume of DMSO was added to the corresponding compound powder to prepare a 10 mM stock solution. • (2) A 1000-fold, 3.16-fold-diluted compound solution was prepared. • (3) The 1000× diluted compound solution was diluted 100-fold with PBS to prepare a 10-fold compound solution with a maximum concentration of 10 μM, including 9 concentrations, with 3.16-fold dilution, and 10 μL of the medicament solution was added to each well of the 96-well plate to seed the cells. Triplicate wells were set for each compound concentration, with a final concentration of DMSO being 0.1%. • (4) The cells were placed in the 96-well plate containing the medicament at 37° C., 5% CO2 and with 95% humidity, and cultured for 72 hrs before CTG analysis. 4. Fluorescence Signal Reading • (1) The CTG reagent was thawed and the cell plate was equilibrated to room temperature for 30 min. • (2) An equal volume of CTG solution was added to each well. • (3) The cells were lysed by shaking on an orbital shaker for 5 min. • (4) The cell plate was left to stand at room temperature for 20 min to stabilize the fluorescence signal. • (5) The fluorescence values were read. 5. Data Processing
Data were analyzed using GraphPad Prism 7.0 software and fitted data were regressed using non-linear S-curves to obtain dose-response curves from which IC50 values (in nM) were calculated.
For `C=CC(=O)Nc1cc(Nc2ncc(C(=O)OC(C)C)c(N3CC(C)(C)c4nc(C)ccc43)n2)c(OC)cc1N1CC[C@H](N(C)C)C1` [Example 13, isopropyl (S)-2-((5-acrylamido-4-(3-(dimethyl-amino)pyrrolidin-1-yl)-2-methoxy-phenyl)amino)-4-(3,3,5-trimethyl-2,3-dihydro-1H-pyrrolo[3,2-b]pyridin-1-yl)pyrimidine-5-carboxylate], the GI50 was 78.3 nM.

For the compound `C=CC(=O)Nc1cc(Nc2ncc(C(=O)OC(C)C)c(N3CC(C)(C)c4nc(C(=C)C)ccc43)n2)c(OC)cc1N(C)CCN(C)C` [Example 14, isopropyl 2-((5-acrylamido-4-((2-(dimethylami-no)ethyl)(methyl)amino)-2-methoxy-phenyl)amino)-4-(3,3-dimethyl-5-(prop-1-en-2-yl)-2,3-dihydro-1H-pyrrolo[3,2-b]pyridin-1-yl)pyrimidine-5-carboxylate], the GI50 worked out at 39 nM.

As for `C=CC(=O)Nc1cc(Nc2ncc(C(=O)OC(C)C)c(N3CC(C)(C)c4nc(C(C)C)ccc43)n2)c(OC)cc1N(C)CCN(C)C` [Example 16, isopropyl 2-((5-acrylamido-4-((2-(dimethylami-no)ethyl)(methyl)amino)-2-methoxy-phenyl)amino)-4-(5-isopropyl-3,3-dimethyl-2,3-dihydro-1H-pyrrolo[3,2-b]pyridin-1-yl)pyrimidine-5-carboxylate], the GI50 is 309 nM.

For the compound `C=CC(=O)Nc1cc(Nc2ncc(C(=O)OC(C)C)c(N3CC(C)(C)c4nc(C(F)(F)F)ccc43)n2)c(OC)cc1N(C)CCN(C)C` [Example 17, isopropyl 2-((5-acrylamido-4-((2-(dimethylami-no)ethyl)(methyl)amino)-2-methoxy-phenyl)amino)-4-(3,3-dimethyl-5-(trifluoromethyl)-2,3-dibydro-1H-pyrrolo[3,2-b]pyridin-1-yl)pyrimidine-5-carboxylate], the GI50 was 135 nM.

Consider `C=CC(=O)Nc1cc(Nc2ncc(C(=O)OC(C)C)c(N3CC(C)(C)c4nc(C#CC5CC5)ccc43)n2)c(OC)cc1N(C)CCN(C)C` [Example 18, isopropyl 2-((5-acrylamido-4-((2-(dimethylami-no)ethyl)(methyl)amino)-2-methoxy-phenyl)amino)-4-(5-(cyclo-propylethynyl)-3,3-dimethyl-2,3-dihydro-1H-pyrrolo[3,2-b]pyridin-1-yl)pyrimidine-5-carboxylate], for which the GI50 was found to be 50.8 nM.

With `C=CC(=O)Nc1cc(Nc2ncc(C(=O)OC(C)C)c(N3CC(C)(C)c4nc(C#CC(C)C)ccc43)n2)c(OC)cc1N(C)CCN(C)C` [Example 19, isopropyl 2-((5-acrylamido-4-((2-(dimethylami-no)ethyl)(methyl)amino)-2-methoxy-phenyl)amino)-4-(3,3-dimethyl-5-(3-methylbut-1-yn-1-yl)-2,3-dihydro-1H-pyrrolo[3,2-b]pyridin-1-yl)pyrimidine-5-carboxylate], the GI50 was 119 nM.

As to `C=CC(=O)Nc1cc(Nc2ncc(C(=O)OC(C)C)c(N3CC(C)(C)c4nc(C#N)ccc43)n2)c(OC)cc1N(C)CCN(C)C` [Example 23, isopropyl 2-((5-acrylamido-4-((2-(dimethylami-no)ethyl)(methyl)amino)-2-methoxy-phenyl)amino)-4-(5-cyano-3,3-dimethyl-2,3-dihydro-1H-pyrrolo[3,2-b]pyridin-1-yl)pyrimidine-5-carboxylate], the GI50 is 92.2 nM.

Consider `C=CC(=O)Nc1cc(Nc2ncc(C(=O)OC(C)C)c(N3CC4(CC(F)(F)C4)c4nc(C)ccc43)n2)c(OC)cc1N(C)CCN(C)C` [Example 24, isopropyl 2-((5-acrylamido-4-((2-(dimethylami-no)ethyl)(methyl)amino)-2-methoxy-phenyl)amino)-4-(3,3-difluoro-5′-methylspiro(cyclobutane-1,3′-pyrrolo[3,2-b]pyridin)-1′(2′H)-yl)pyrimidine-5-carboxylate], for which the GI50 amounted to 111 nM.

`C=CC(=O)Nc1cc(Nc2ncc(C(=O)OC(C)C)c(N3CC(C)(C)c4nc(C)ccc43)n2)c(OC(C)C)cc1N(C)CCN(C)C` [Example 28, isopropyl 2-((5-acrylamido-4-((2-(dimethylami-no)ethyl)(methyl)amino)-2-isopropoxy-phenyl)amino)-4-(3,3,5-trimethyl-2,3-dihydro-1H-pyrrolo[3,2-b]pyridin-1-yl)pyrimidine-5-carboxylate]: the GI50 stood at 204 nM.

Take `C=CC(=O)Nc1cc(Nc2ncc(C(=O)OC(C)C)c(N3CC(C)(C)c4nc(C)ccc43)n2)c(OC2CC2)cc1N(C)CCN(C)C` [Example 32, isopropyl 2-((5-acrylamido-2-cyclopropoxy-4-((2-(dimethylamino)ethyl)(methyl)ami-no)phenyl)amino)-4-(3,3,5-trimethyl-2,3-dihydro-1H-pyrrolo[3,2-b]pyridin-1-yl)pyrimidine-5-carboxylate]: the GI50 turned out to be 44.4 nM.

For `C=CC(=O)Nc1cc(Nc2ncc(C(=O)OC(C)C)c(N3CC(C)(C)c4nc(C)ccc43)n2)c(OC)cc1N1CCN(C)CC1` [Example 33, isopropyl 2-((5-acrylamido-2-methoxy-4-(4-methylpiperazin-1-yl)phenyl)amino)-4-(3,3,5-trimethyl-2,3-dihydro-1H-pyrrolo[3,2-b]pyridin-1-yl)pyrimidine-5-carboxylate], the GI50 was 503 nM.

`C=CC(=O)Nc1cc(Nc2ncc(C(=O)OC(C)C)c(N3CC(C)(C)c4nc(C)ccc43)n2)c(OC)cc1N1CCN(CC)CC1` [Example 34, isopropyl 2-((5-acrylamido-4-(4-ethylpiperazin-1-yl)-2-methoxyphenyl)amino)-4-(3,3,5-trimethyl-2,3-dihydro-1H-pyrrolo[3,2-b]pyridin-1-yl)pyrimidine-5-carboxylate]: the GI50 was determined as 443 nM.

As to `C=CC(=O)Nc1cc(Nc2ncc(C(=O)OC(C)C)c(N3CC(C)(C)c4nc(C)ccc43)n2)c(OCC)cc1N(C)CCN(C)C` [Example 37, isopropyl 2-((5-acrylamido-4-((2-(dimethylami-no)ethyl)(methyl)amino)-2-ethoxy-phenyl)amino)-4-(3,3,5-trimethyl-2,3-dihydro-1H-pyrrolo[3,2-b]pyridin-1-yl)pyrimidine-5-carboxylate], the GI50 stood at 72.9 nM.

In the case of `C=CC(=O)Nc1cc(Nc2ncc(C(=O)OC(C)C)c(N3CC(C)(C)c4nc(N5CCC5)ccc43)n2)c(OC)cc1N(C)CCN(C)C` [Example 38, isopropyl 2-((5-acrylamido-4-((2-(dimethylami-no)ethyl)(methyl)amino)-2-methoxy-phenyl)amino)-4-(5-(azetidin-1-yl)-3,3-dimethyl-2,3-dihydro-1H-pyrrolo[3,2-b]pyridin-1-yl)pyrimidine-5-carboxylate], the GI50 came out at 339 nM.

On to `C=CC(=O)Nc1cc(Nc2ncc(C(=O)OC(C)C)c(N3CC(C)(C)c4nc(C)ccc43)n2)c(OC)cc1N1CCN(C2CC2)CC1` [Example 39, isopropyl 2-((5-acrylamido-4-(4-cyclopropyl-piperazin-1-yl)-2-methoxy-phenyl)amino)-4-(3,3,5-trimethyl-2,3-dihydro-1H-pyrrolo[3,2-b]pyridin-1-yl)pyrimidine-5-carboxylate], for which the GI50 came to 545 nM.
